Active and inactive are the calls of the source. No cut-off for these calls is given here.
How the values were obtained:
[1] = tested on: PC-12; assay: Induction of neurite outgrowth in rat PC12 cells assessed as increase in neurite length at 30 uM incubated for 48 hrs by phase contrast microscopy; type: functional, cell-based
[2] = tested on: PC-12; assay: Induction of neurite outgrowth in rat PC12 cells assessed as increase in neurite length at 1 uM incubated for 48 hrs by phase contrast microscopy; type: functional, cell-based
[3] = tested on: PC-12; assay: Cytotoxicity against rat PC12 cells assessed as reduction in cell viability at >5 uM incubated for 48 hrs; type: cell-based; settings: pc-12, 48 h
[4] = tested on: PC-12; assay: Cytotoxicity against rat PC12 cells assessed as reduction in cell viability at 10 uM incubated for 48 hrs; type: cell-based; settings: pc-12, 48 h
[5] = tested on: PC-12; assay: Induction of neurite outgrowth in rat PC12 cells assessed as increase in neurite length at 10 uM incubated for 48 hrs by phase contrast microscopy; type: functional, cell-based
[6] = tested on: PC-12; assay: Induction of neurite outgrowth in rat PC12 cells assessed as increase in neurite length incubated for 48 hrs by phase contrast microscopy; type: functional, cell-based

Row | SMILES | Activity [1] | Activity [2] | also measured
1 | O=C(OCCCCCCCCCCc1ccccc1)c1cccc(O)c1O | inactive |  | 
2 | CCCCCCCCCCCCCCOC(=O)c1csc(N)n1 |  | inactive | 
3 | CCCCCCCCCCCCCCOC(=O)c1cccc(O)c1O |  | Active | Activity [3]: Toxic; Activity [4]: Toxic
4 | O=C(OCCCc1ccccc1)c1cccc(O)c1O | inactive |  | 
5 | O=C(Oc1ccc(-c2ccccc2)cc1)c1cccc(O)c1O |  |  | Activity [5]: inactive
6 | CCCCCCC/C=C/c1ccc(COC(=O)c2cccc(O)c2O)cc1 |  | Active | 
7 | CCCCCCCC/C=C/c1ccc(COC(=O)c2cccc(O)c2O)cc1 |  | Active | 
8 | CCCCCc1ccc(-c2ccc(COC(=O)c3cccc(O)c3O)cc2)cc1 |  |  | Activity [5]: inactive
9 | O=C(OCCc1ccccc1)c1cccc(O)c1O | inactive |  | 
10 | O=C(OCc1ccc(-c2ccccc2)cc1)c1cccc(O)c1O |  |  | Activity [5]: inactive
11 | O=C(OCCCCc1ccccc1)c1cccc(O)c1O | inactive |  | 
12 | O=C(OCc1ccccc1)c1cccc(O)c1O | Active |  | 
13 | CCCCCCCCCCCCCCOC(=O)c1c(O)c(=O)[nH]c2ccccc12 |  | Active | Activity [3]: Toxic; Activity [6]: Dose-dependent effect; Activity [4]: Toxic
14 | CCCCCCCCCCCCCCOC(=O)c1ccn[nH]1 |  | inactive | 
15 | CCCCCCCCCCCCCCOC(=O)c1cccc2nc[nH]c12 |  | inactive | 
16 | CCCCCCCCCCc1ccc(COC(=O)c2cccc(O)c2O)cc1 |  | Active | 
17 | CCCCCCCCCCc1ccc(OC(=O)c2cccc(O)c2O)cc1 |  | Active | Activity [3]: Toxic; Activity [6]: Dose-dependent effect; Activity [4]: Toxic
18 | O=C(Oc1ccccc1)c1cccc(O)c1O | Active |  | 
19 | CCCCCCCCCc1ccc(COC(=O)c2cccc(O)c2O)cc1 |  | Active | Activity [3]: Toxic; Activity [6]: Dose-dependent effect; Activity [4]: Toxic
20 | CCCCCCc1ccc(-c2ccc(OC(=O)c3cccc(O)c3O)cc2)cc1 |  |  | Activity [5]: inactive

— ChEMBL document CHEMBL4359927, “Structural optimization and neurotrophic activity evaluation of neurotrophic gentiside derivatives” (Bioorg Med Chem Lett, 2019)
